The data set is described as follows: Solubility of Cefmenoxime hydrochloride in organic solvents. The class given is physicochemical. The text has this: According to the instant invention, after the treatment of step 1), these impurities can be separated from Cefmenoxime hydrochloride.
Treating Cefmenoxime hydrochloride crude directly with a good-poor solvent precipitation method can not achieve the desired purity.

Where a name gives a salt, the structure may show the parent alone.

Consider `CO/N=C(\C(=O)N[C@@H]1C(=O)N2C(C(=O)O)=C(CSc3nnnn3C)CS[C@H]12)c1csc(N)n1` [Cefmenoxime hydrochloride, (6R,7R)-7-[(Z)-2-(2-amino-thiazol-4-yl)-2-methoxyiminoacetylamino]-3-[[(1-methyl-1H-tetrazol-5-yl)-sulfanyl]methyl]-8-oxo-5-thia-1-azabicyclo[4.2.0]oct-2-ene-2-carboxylic acid hydrochloride (2:1)], for which, where the note is “solvent acetone”, the solubility in acetone entry is “almost insoluble”. Moreover, the solubility in ethanol entry (solvent ethanol) is reported as “almost insoluble”. Where the note is “solvent ethyl acetate”, the “solubility in ethyl acetate” value is given as “almost insoluble”. Further, the solubility in formamide entry (solvent formamide) is given as “soluble”. Moreover, the solubility in methanol result (solvent methanol) is reported as “slightly soluble”.
